Data: patent publication US20200289554A1, “BIOORTHOGONAL COMPOUNDS COMPRISING A PROPARGYL GROUP FOR TREATING CANCER” (THE UNIVERSITY COURT OF THE UNIVERSITY OF EDINBURGH, priority 2016, published 2020)

Tested on: T98 cells
Experiment: BOOM conversion: prodrug + Pd0-resins in cell culture, cell viability, T98
Type: cell-based, human
Details: Homo sapiens, 120 h, prodrug in combination with Pd0-resins 1 mg/mL, 5 days, read-out: EC50, prodrug + Pd-resins
Experimental: Following 5 days treatment, cells were incubated with PrestoBlue™ Cell Viability Reagent (Life Technologies) for 60-90 min. Fluorescence intensity values were related to the untreated cells (100% cell viability). […] Cells incubated in 0.1% (v/v) DMSO in media were used as untreated cell control.
Cell viabilities for each prodrug provided as a combination with palladium is presented in FIG. 7 in the right of each set of two bars. Data for prodrug in the absence of palladium catalyst is also provided (the left bar of each set of two bars) for comparison along with negative controls (from left to right: DMSO, Pd^0 and Doxorubicin). Cells were incubated in tissue culture media containing 0.1% (v/v) DMSO and: Pd^0-resins (1 mg/mL, negative control); 1 μM of each prodrug (negative control); and Pd^0-resins (1 mg/mL)+1 μM of each prodrug (BOOM reaction assay). Cells incubated in 0.1% (v/v) DMSO in media were used as untreated cell control.
Following 5 days treatment, cells were incubated with PrestoBlue™ Cell Viability Reagent (Life Technologies) for 90 min. Fluorescence intensity values were related to the untreated cells (100% cell viability). Data are provided in FIG. 8 for cells incubated in tissue culture media containing 0.1% (v/v) DMSO and: Pd^0-resins (1 mg/mL, negative control); 0.3-3 μM of Doxorubicin prodrug for A549 and DU145 cell lines, 0.1-1 μM of Doxorubicin prodrug for T98 cell line (negative control); 0.3-3 μM of Doxorubicin for A549 and DU145 cell lines, 0.1-1 μM of Doxorubicin for T98 cell line (positive control); and Pd^0-resin (1 mg/mL)+Doxorubicin prodrug (BOOM reaction assay). Cells incubated in 0.1% (v/v) DMSO in media were used as untreated cell control.
The toxigenic effect as a result of in situ generation of parental drug in cell culture was determined by incubating all cells in tissue culture media containing 0.1% (v/v) DMSO and a) Pd^0, Au, or Pd/Au-resin (1 mg/mL for all cells tested, negative control); b) prodrug (negative control); or c) Pd^0, Au, or Pd/Au-resin (1 mg/mL for all cells)+prodrug (reaction assay). Cells incubated in 0.1% (v/v) DMSO in media was used as an untreated cell reference standard (100% viability). A PrestoBlue® cell viability assay as described above was carried out and fluorescent intensities compared to the untreated cell control.
A dose response study was performed for each cell line keeping the quantity of Pd^0 resin constant (0.8 mg/mL for U87G and 1 mg/mL for the rest of cell lines). All cells were plated in Dulbecco's Modified Eagle Media (DMEM) supplemented with serum (10% FBS) and L-glutamine (2 mM). […]

C#CCOc1ccc(CONC(=O)CCCCCCC(=O)Nc2ccccc2)cc1 [POB-Vor, Propargyloxybenzyl-Vorinostat]
EC50: 16.8 µM
